The record followed here is publication PMC7745125 (Science (New York, N.y.), 2019).

In experiment [1] the target is T1, tyrosine decarboxylase (TyrDC) (Enterococcus faecalis, UniProt P0DTQ4).
T1 sequence (P0DTQ4 1-620): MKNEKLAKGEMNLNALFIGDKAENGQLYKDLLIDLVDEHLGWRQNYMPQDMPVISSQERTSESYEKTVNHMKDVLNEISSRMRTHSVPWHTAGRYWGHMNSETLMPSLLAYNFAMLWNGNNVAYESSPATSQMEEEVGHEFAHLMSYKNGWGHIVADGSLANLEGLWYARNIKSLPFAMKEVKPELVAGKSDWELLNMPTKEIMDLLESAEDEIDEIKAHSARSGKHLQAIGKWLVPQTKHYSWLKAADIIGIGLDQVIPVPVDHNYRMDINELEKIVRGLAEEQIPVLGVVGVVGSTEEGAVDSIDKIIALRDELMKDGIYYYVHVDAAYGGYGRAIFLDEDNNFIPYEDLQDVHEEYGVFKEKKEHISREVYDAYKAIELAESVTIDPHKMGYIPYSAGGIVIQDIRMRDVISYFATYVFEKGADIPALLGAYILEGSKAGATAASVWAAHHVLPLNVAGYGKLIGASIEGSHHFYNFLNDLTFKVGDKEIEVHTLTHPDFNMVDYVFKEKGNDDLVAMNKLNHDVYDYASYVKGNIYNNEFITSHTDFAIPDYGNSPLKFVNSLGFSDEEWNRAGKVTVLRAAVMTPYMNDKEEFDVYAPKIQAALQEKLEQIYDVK

For experiment [2], the target named is T1, tyrosine decarboxylase (TyrDC). As to the kind of experiment: enzyme kinetics of TyrDC in vitro. It is filed as biochemical.

A word on the Km: it is the substrate concentration at which the rate is half of its maximum.

Regarding `N[C@@H](Cc1ccc(O)c(O)c1)C(=O)O` [L-dopa], the Km in experiment [1] was 1500 µM.
Regarding `N[C@@H](Cc1ccc(O)cc1)C(=O)O` [L-tyrosine], the “enzyme kinetics of TyrDC in vitro” value in experiment [2] is “In vitro characterization of TyrDC revealed a fivefold higher catalytic efficiency toward L-tyrosine compared with L-dopa”.
